The text below walks through data of article PMC11995724, “Antibiotic target discovery by integrated phenotypic and activity-based profiling of electrophilic fragments” (Cell chemical biology, 2025).

The series is described as follows: in vitro. The note with it: human, hek293t cells.
Usually viability stands for a read-out of living cells in per cent, often relative to untreated cells. Take `C=CC(=O)N(Cc1cn(C)nc1CC)C1CCCCCC1` [1-H09, N-cycloheptyl-N-[(3-ethyl-1-methyl-1H-pyrazol-4-yl)methyl]prop-2-enamide]: the viability at 48 h, 25 µM came to 84.9%. For `C=CC(=O)NC(CN1CCCS1(=O)=O)C1CC1` (stereo not shown) [1-H10, N-[1-cyclopropyl-2-(1,1-dioxo-1lambda6,2-thiazolidin-2-yl)ethyl]prop-2-enamide], the viability at 48 h, 25 µM came to 100%. Take `C=CC(=O)N(Cc1cccc2cccnc12)C1CCCN(CC)C1` (stereo not shown) [1-H11, N-(1-ethylpiperidin-3-yl)-N-[(quinolin-8-yl)methyl]prop-2-enamide]: the viability at 48 h, 25 µM was 55.3%. For `C=CC(=O)N1CCN(C(=O)c2ccc(OC)c(OC)c2OC)CC1` [1-H12, 1-[4-(2,3,4-trimethoxybenzoyl)piperazin-1-yl]prop-2-en-1-one], the viability at 48 h, 25 µM was found to be 80%. With `C=CC(=O)N(Cc1noc2c1CCCC2)CC1CCCC1` [1-H13, N-(cyclopentylmethyl)-N-[(4,5,6,7-tetrahydro-1,2-benzoxazol-3-yl)methyl]prop-2-enamide], the viability at 48 h, 25 µM was 113%. On to `C=CC(=O)NCC(C)Cn1nccc1C` (stereo not shown) [1-H14, N-[2-methyl-3-(5-methyl-1H-pyrazol-1-yl)propyl]prop-2-enamide], for which the viability at 48 h, 25 µM came to 87.8%. With `C=CC(=O)N(Cc1cc2ccccn2n1)CC1(O)CCCCC1` [1-H15, N-[(1-hydroxycyclohexyl)methyl]-N-({pyrazolo[1,5-a]pyridin-2-yl}methyl)prop-2-enamide], the viability at 48 h, 25 µM is 102%. Then `C=CC(=O)Nc1cc(OC)cc(S(C)(=O)=O)c1` [1-H16, N-(3-methanesulfonyl-5-methoxyphenyl)prop-2-enamide], with 84.1%; and `C=CC(=O)NC1COC(C)C1` (stereo not shown) [1-H17, N-(5-methyloxolan-3-yl)prop-2-enamide], with 106%. As for `C=CC(=O)N1CCN(CC2CCOC2)CC1` (stereo not shown) [1-H18, 1-{4-[(oxolan-3-yl)methyl]piperazin-1-yl}prop-2-en-1-one], the viability at 48 h, 25 µM is 49.6%. Turning to `C=CC(=O)NCc1nnc2ccccn12` [1-H19, N-({[1,2,4]triazolo[4,3-a]pyridin-3-yl}methyl)prop-2-enamide], the viability at 48 h, 25 µM came out at 182%. Turning to `C=CC(=O)NCc1ccnn1C` [1-H20, N-[(1-methyl-1H-pyrazol-5-yl)methyl]prop-2-enamide], the viability at 48 h, 25 µM came to 58%. Consider `C=CC(=O)NC1Cc2ccccc2C1=O` (stereo not shown) [1-H21, N-(1-oxo-2,3-dihydro-1H-inden-2-yl)prop-2-enamide], for which the viability at 48 h, 25 µM stood at 156%. Consider `C=CC(=O)NCc1cccc(OC)n1` [1-H22, N-[(6-methoxypyridin-2-yl)methyl]prop-2-enamide], for which the viability at 48 h, 25 µM amounted to 79.2%. As for `C=CC(=O)NC(=O)NCc1ccccc1` [1-I04, 1-benzyl-3-(prop-2-enoyl)urea], the viability at 48 h, 25 µM is 0.515%. Turning to `C=CC(=O)N1CCC(C(=O)NCc2ccccc2)CC1` [1-I05, N-benzyl-1-(prop-2-enoyl)piperidine-4-carboxamide], the viability at 48 h, 25 µM was 86.7%.

Regarding `C=CC(=O)NCc1cscn1` [1-I07, N-[(1,3-thiazol-4-yl)methyl]prop-2-enamide], the viability at 48 h, 25 µM was found to be 69.5%. As for `C=CC(=O)N(C)CCCn1c(=O)c(C)nc2ccccc21` [1-I08, N-methyl-N-[3-(3-methyl-2-oxo-1,2-dihydroquinoxalin-1-yl)propyl]prop-2-enamide], the figure is 76.3%.

With `C=CC(=O)Nc1conc1-c1ccccc1` [1-I09, N-(3-phenyl-1,2-oxazol-4-yl)prop-2-enamide], the viability at 48 h, 25 µM was 59.1%. Turning to `C=CC(=O)Nc1ccc(Cl)cc1F` [1-I10, N-(4-chloro-2-fluorophenyl)prop-2-enamide], the viability at 48 h, 25 µM came to 47.1%. For the compound `C=CC(=O)NCc1cc(-c2cccc(OC)c2)no1` [1-I11, N-{[3-(3-methoxyphenyl)-1,2-oxazol-5-yl]methyl}prop-2-enamide], the viability at 48 h, 25 µM amounted to 76.7%. Turning to `C=CC(=O)NCc1nc2ccccc2s1` [1-I12, N-[(1,3-benzothiazol-2-yl)methyl]prop-2-enamide], the viability at 48 h, 25 µM was 35.8%. Regarding `C=CC(=O)NCC(c1c(F)cccc1F)N1CC(C)OC(C)C1` (stereo not shown) [1-I13, N-[2-(2,6-difluorophenyl)-2-(2,6-dimethylmorpholin-4-yl)ethyl]prop-2-enamide], the viability at 48 h, 25 µM came to 72.5%. As for `C=CC(=O)NCc1ccnc(N2CCSCC2)c1` [1-I14, N-{[2-(thiomorpholin-4-yl)pyridin-4-yl]methyl}prop-2-enamide], the viability at 48 h, 25 µM worked out at 22.1%.

In the case of `C=CC(=O)N[C@@H](CC(N)=O)c1cccc(Cl)c1` [1-I15, N-[(1S)-2-carbamoyl-1-(3-chlorophenyl)ethyl]prop-2-enamide], the viability at 48 h, 25 µM is 81.6%. For the compound `C=CC(=O)Nc1ccc(C(C)CC(N)=O)cc1` (stereo not shown) [1-I16, 3-[4-(prop-2-enamido)phenyl]butanamide], the viability at 48 h, 25 µM is 72.6%.

Consider `C=CC(=O)Nc1ccc(-n2cnnn2)c(F)c1` [1-I17, N-[3-fluoro-4-(1H-1,2,3,4-tetrazol-1-yl)phenyl]prop-2-enamide], for which the viability at 48 h, 25 µM is 39.9%. As for `C=CC(=O)NCc1cccc(-c2nnc[nH]2)c1` [1-I18, N-{[3-(4H-1,2,4-triazol-3-yl)phenyl]methyl}prop-2-enamide], the viability at 48 h, 25 µM came out at 172%. For `C=CC(=O)Nc1cc(CC(C)(C)C)no1` [1-I19, N-[3-(2,2-dimethylpropyl)-1,2-oxazol-5-yl]prop-2-enamide], the viability at 48 h, 25 µM came out at 1.69%. For `C=CC(=O)N1CCC(C(=O)Nc2cc(OCC)ccc2Cl)CC1` [1-I20, N-(2-chloro-5-ethoxyphenyl)-1-(prop-2-enoyl)piperidine-4-carboxamide], the viability at 48 h, 25 µM was found to be 122%.

In the case of `C=CC(=O)Nc1cc(C(C)C)ccc1C(C)C` [1-I21, N-[2,5-bis(propan-2-yl)phenyl]prop-2-enamide], the viability at 48 h, 25 µM is 101%.

Take `C=CC(=O)Nc1ccc(F)c(C(=O)CC)c1` [1-I22, N-(4-fluoro-3-propanoylphenyl)prop-2-enamide]: the viability at 48 h, 25 µM came out at 101%. Take `C=CC(=O)NCc1ccccc1S(=O)(=O)NC(C)(C)C` [1-J03, N-{[2-(tert-butylsulfamoyl)phenyl]methyl}prop-2-enamide]: the viability at 48 h, 25 µM turned out to be 160%. `C=CC(=O)NCC(C)(C)Cn1cccn1` [1-J04, N-[2,2-dimethyl-3-(1H-pyrazol-1-yl)propyl]prop-2-enamide]: the viability at 48 h, 25 µM was determined as 69.4%. On to `C=CC(=O)N1CCCC1Cn1c(C)nc2ccccc21` (stereo not shown) [1-J05, 1-{2-[(2-methyl-1H-1,3-benzodiazol-1-yl)methyl]pyrrolidin-1-yl}prop-2-en-1-one], for which the viability at 48 h, 25 µM is 149%. As to `C=CC(=O)NC1CCSC(C)C1` (stereo not shown) [1-J06, N-(2-methylthian-4-yl)prop-2-enamide], the viability at 48 h, 25 µM amounted to 78.4%. `C=CC(=O)N1CCN(S(=O)(=O)Cc2ccon2)CC1` [1-J07, 1-{4-[(1,2-oxazol-3-yl)methanesulfonyl]piperazin-1-yl}prop-2-en-1-one]: the viability at 48 h, 25 µM was 112%.

As to `C=CC(=O)Nc1cccc(-c2nc(COC)no2)c1C` [1-J08, N-{3-[3-(methoxymethyl)-1,2,4-oxadiazol-5-yl]-2-methylphenyl}prop-2-enamide], the viability at 48 h, 25 µM was determined as 79%. `C=CC(=O)N(Cc1c(C)cc(Cl)cc1C)CC1COCCO1` (stereo not shown) [1-J09, N-[(4-chloro-2,6-dimethylphenyl)methyl]-N-[(1,4-dioxan-2-yl)methyl]prop-2-enamide]: the viability at 48 h, 25 µM was determined as 81.4%. Take `C=CC(=O)NCc1cnc(CC(C)C)s1` [1-J10, N-{[2-(2-methylpropyl)-1,3-thiazol-5-yl]methyl}prop-2-enamide]: the viability at 48 h, 25 µM amounted to 84.2%. Regarding `C=CC(=O)N(Cc1cn(C)cn1)[C@H]1CCCc2ccc(C)cc21` [1-J11, N-[(1S)-7-methyl-1,2,3,4-tetrahydronaphthalen-1-yl]-N-[(1-methyl-1H-imidazol-4-yl)methyl]prop-2-enamide], the viability at 48 h, 25 µM was found to be 88.8%. In the case of `C=CC(=O)Nc1nc(C)c(CC(C)C)s1` [1-J12, N-[4-methyl-5-(2-methylpropyl)-1,3-thiazol-2-yl]prop-2-enamide], the viability at 48 h, 25 µM was 0.934%. As for `C=CC(=O)Nc1cc(OC)ccc1C(=O)N(C)OC` [1-J14, N,4-dimethoxy-N-methyl-2-(prop-2-enamido)benzamide], the figure is 74.9%; as for `C=CC(=O)N(Cc1cc(-c2ccco2)n(C)n1)C1CCCCC1` [1-J15, N-cyclohexyl-N-{[5-(furan-2-yl)-1-methyl-1H-pyrazol-3-yl]methyl}prop-2-enamide], 83.8%. Regarding `C=CC(=O)Nc1ncc(C2CCCC(C)C2)s1` (stereo not shown) [1-J16, N-[5-(3-methylcyclohexyl)-1,3-thiazol-2-yl]prop-2-enamide], the viability at 48 h, 25 µM was 0.801%. Then `C=CC(=O)NCc1cn([C@@H]2COC[C@H]2OC)nn1` [1-J17, N-({1-[(3R,4S)-4-methoxyoxolan-3-yl]-1H-1,2,3-triazol-4-yl}methyl)prop-2-enamide], with 96.5%. For `C=CC(=O)N1CCCC(S(C)(=O)=O)C1` (stereo not shown) [1-J18, 1-(3-methanesulfonylpiperidin-1-yl)prop-2-en-1-one], the viability at 48 h, 25 µM was 63.9%. For the compound `C=CC(=O)NCc1ccccc1-n1ccc(C)n1` [1-J19, N-{[2-(3-methyl-1H-pyrazol-1-yl)phenyl]methyl}prop-2-enamide], the viability at 48 h, 25 µM amounted to 126%. As for `C=CC(=O)N1CCN(c2nc(CC)ns2)CC1` [1-J20, 1-[4-(3-ethyl-1,2,4-thiadiazol-5-yl)piperazin-1-yl]prop-2-en-1-one], the figure is 46.2%; as for `C=CC(=O)Nc1nc2c(s1)-c1cc(OC)ccc1CC2` [1-J21, N-{8-methoxy-4H,5H-naphtho[2,1-d][1,3]thiazol-2-yl}prop-2-enamide], 118%. `C=CC(=O)Nc1sc2c(c1C(=O)c1ccc(C)cc1)CCOC2` [1-J22, N-[3-(4-methylbenzoyl)-4H,5H,7H-thieno[2,3-c]pyran-2-yl]prop-2-enamide]: the viability at 48 h, 25 µM is 0.993%.

As for `C=CC(=O)NCc1nc(C(=O)O)c(C)s1` [1-K03, 5-methyl-2-[(prop-2-enamido)methyl]-1,3-thiazole-4-carboxylic acid], the viability at 48 h, 25 µM was 80.8%.
